How the values were obtained:
[1] = system: Staphylococcus aureus 446; assay: Standard broth micro-dilution MIC, Staphylococcus aureus 446; assay type: cell-based
Procedure: (§1) The minimal inhibitory concentrations (MICs) were determined using a standard broth micro-dilution assay.

[2] = system: Staphylococcus aureus 489; assay: Standard broth micro-dilution MIC, Staphylococcus aureus 489; assay type: cell-based
Procedure: as §1

[3] = system: Staphylococcus aureus 447; assay: Standard broth micro-dilution MIC, Staphylococcus aureus 447; assay type: cell-based
Procedure: as §1

[4] = system: Staphylococcus aureus X400; assay: Standard broth micro-dilution MIC, Staphylococcus aureus X400; assay type: cell-based
Procedure: as §1

[5] = system: Staphylococcus aureus X778; assay: Standard broth micro-dilution MIC, Staphylococcus aureus X778; assay type: cell-based
Procedure: as §1

[6] = system: Staphylococcus aureus 491; assay: Standard broth micro-dilution MIC, Staphylococcus aureus 491; assay type: cell-based
Procedure: as §1

[7] = system: Staphylococcus aureus S13E; assay type: cell-based
Procedure: as §1

[8] = system: Staphylococcus aureus SA1199; assay: Standard broth micro-dilution MIC, Staphylococcus aureus SA1199; assay type: cell-based
Procedure: as §1

[9] = system: Staphylococcus aureus SA1199A; assay: Standard broth micro-dilution MIC, Staphylococcus aureus SA1199A; assay type: cell-based
Procedure: as §1

[10] = system: Staphylococcus aureus SA119913; assay: Standard broth micro-dilution MIC, Staphylococcus aureus SA119913; assay type: cell-based
Procedure: as §1

[11] = system: Staphylococcus haemolyticus 105; assay: Standard broth micro-dilution MIC, Staphylococcus haemolyticus 105; assay type: cell-based
Procedure: as §1

[12] = system: Staphylococcus haemolyticus 415; assay: Standard broth micro-dilution MIC, Staphylococcus haemolyticus 415; assay type: cell-based
Procedure: as §1

[13] = system: Staphylococcus epidermidis 270; assay: Standard broth micro-dilution MIC, Staphylococcus epidermidis 270; assay type: cell-based
Procedure: as §1

[14] = system: Enterococcus faecium 180; assay: Standard broth micro-dilution MIC, Enterococcus faecium 180; assay type: cell-based
Procedure: as §1

[15] = system: Enterococcus faecium 180-1; assay: Standard broth micro-dilution MIC, Enterococcus faecium 180-1; assay type: cell-based
Procedure: as §1

[16] = system: Enterococcus faecalis 2041; assay: Standard broth micro-dilution MIC, Enterococcus faecalis 2041; assay type: cell-based
Procedure: as §1

[17] = system: Enterococcus faecalis 276; assay: Standard broth micro-dilution MIC, Enterococcus faecalis 276; assay type: cell-based
Procedure: as §1

[18] = system: Enterococcus gallinarum 245; assay: Standard broth micro-dilution MIC, Enterococcus gallinarum 245; assay type: cell-based
Procedure: as §1

[19] = system: Haemophilus influenzae RD; assay: Standard broth micro-dilution MIC, Haemophilus influenzae RD; assay type: cell-based
Procedure: as §1

[20] = system: Escherichia coli EC14; assay: Standard broth micro-dilution MIC, Escherichia coli EC14; assay type: cell-based
Procedure: as §1

[21] = system: Streptococcus pyogenes C203; assay: Standard broth micro-dilution MIC, Streptococcus pyogenes C203; assay type: cell-based
Procedure: as §1

[22] = system: Streptococcus pneumoniae P1; assay: Standard broth micro-dilution MIC, Streptococcus pneumoniae P1; assay type: cell-based
Procedure: as §1

[23] = system: vancomycin-resistant enterococci; assay: In Vitro Activity Against Enterococci, vancomycin-resistant strains; assay type: cell-based; conditions: representative vancomycin-resistant enterococci (Enterococcus faecium and Enterococcus faecalis)
Procedure: as §1

[24] = system: vancomycin-sensitive enterococci; assay: In Vitro Activity Against Enterococci, vancomycin-sensitive strains; assay type: cell-based, Enterococcus faecium and Enterococcus faecalis; conditions: representative vancomycin-sensitive enterococci (Enterococcus faecium and Enterococcus faecalis)
Procedure: as §1

Row | Substance | MIC [1] [µg/mL] | MIC [2] [µg/mL] | MIC [3] [µg/mL] | MIC [4] [µg/mL] | MIC [5] [µg/mL] | MIC [6] [µg/mL] | MIC [7] [µg/mL] | MIC [8] [µg/mL] | MIC [9] [µg/mL] | MIC [10] [µg/mL] | MIC [11] [µg/mL] | MIC [12] [µg/mL] | MIC [13] [µg/mL] | MIC [14] [µg/mL] | MIC [15] [µg/mL] | MIC [16] [µg/mL] | MIC [17] [µg/mL] | MIC [18] [µg/mL] | MIC [19] [µg/mL] | MIC [20] [µg/mL] | also measured
1 | N^4 -(4-(12-(p-formylphenoxy)-n-dodecyloxy)benzyl)A82846B [Compound 48] | > 64 | 32 | > 64 | 32 | 32 | 32 | 32 | 32 | 16 | 32 | > 64 | > 64 | > 64 | 64 | 8 | 8 | 32 | > 64 | > 64 | > 64 | MIC [21]: 2 µg/mL; MIC [22]: 4 µg/mL; mean geometric MIC, Vancomycin Resistant Strains [23]: 8.0 µg/mL; mean geometric MIC, Vancomycin Sensitive Strains [24]: 5.2 µg/mL
2 | N^4 -(4-(2-(2-(2-(p-formyl-phenoxy)ethoxy)ethoxy)ethoxy)benzyl)A82846B [Compound 43] | 2 | 1 | 4 | 2 | 2 | 0.5 | 2 | 2 | 0.5 | 4 | 1 | 8 | 4 | 8 | 0.5 | 1 | 1 | 0.5 | > 64 | > 64 | MIC [21]: 0.06 µg/mL; MIC [22]: 0.06 µg/mL; mean geometric MIC, Vancomycin Resistant Strains [23]: > 128 µg/mL; mean geometric MIC, Vancomycin Sensitive Strains [24]: 4.6 µg/mL
3 | N^4 -(4-(2-(4-(2-(p-formyl-phenoxy)ethoxycarbonyl)benzoyl-oxy)ethoxy)benzyl)vancomycin [Compound 44] | 0.125 | 0.125 | 0.125 | ≤ 0.06 | ≤ 0.06 | ≤ 0.06 | ≤ 0.06 | ≤ 0.06 | ≤ 0.06 | ≤ 0.06 | 0.25 | 2 | 0.25 | 4 | ≤ 0.06 | ≤ 0.06 | ≤ 0.06 | 0.25 | > 64 | > 64 | MIC [21]: 0.06 µg/mL; MIC [22]: 0.06 µg/mL; mean geometric MIC, Vancomycin Resistant Strains [23]: 76 µg/mL; mean geometric MIC, Vancomycin Sensitive Strains [24]: 0.66 µg/mL
4 | 1,3-propanediyl-bis-[(oxy-4,1-phenylene)-methylene]-bis-[A82846B] [Compound 14] | 4 | 1 | 16 | 2 | 1 | 0.25 | 2 | 4 | 0.125 | 2 | 4 | 16 | 8 | 0.25 | ≤ 0.06 | 0.25 | 0.5 | 0.06 | > 64 | > 64 | MIC [21]: 0.06 µg/mL; MIC [22]: 0.06 µg/mL; mean geometric MIC, Vancomycin Resistant Strains [23]: > 64 µg/mL; mean geometric MIC, Vancomycin Sensitive Strains [24]: 1.0 µg/mL
5 | N^4 -(4-(8-(p-formylphenoxy)-n-octyloxy)benzyl)A82846B [Compound 47] | 8 | 4 | 8 | 8 | 8 | 16 | 16 | 16 | 0.5 | 8 | 8 | 16 | 4 | 0.5 | 1 | 2 | 8 | 16 | > 64 | > 64 | MIC [21]: ≤ 0.06 µg/mL; MIC [22]: ≤ 0.06 µg/mL; mean geometric MIC, Vancomycin Resistant Strains [23]: 2.8 µg/mL; mean geometric MIC, Vancomycin Sensitive Strains [24]: 1.0 µg/mL
